Test results: patent publication US9150519B2, “6-amino-pyrimidine-4-carboxamide derivatives and related compounds which bind to the sphingosine 1-phosphate (S1P) receptor for the treatment of multiple sclerosis” (MERCK SERONO SA, priority 2007, dated 2015)
pEC50: −log10 of the molar value.

Biological target: S1P1 (Homo sapiens (Human), UniProt P21453)
Assay: 35S-GTPγS binding assay, S1P1 membranes
Type: biochemical
Details: membranes from CHO cells expressing S1P1; read-out: S1P1 GTPyS EC50
Experimental: Membranes were prepared from CHO cells expressing S1P1 or S1P3 for use in ligand and […] binding studies. Cells were suspended in 50 mM TRIS, pH 7.4, 2 mM EDTA, 250 mM Sucrose (buffer A) and 1× Complete protease inhibitor cocktail (Roche), and disrupted at 4° C. by nitrogen decompression using a cell disruption bomb (Parr Instrument). Following centrifugation at 1000 RPM for 10 min at 4° C., the supernatant was suspended in buffer A and centrifuged again at 19000 RPM for 60 min at 4° C. The pellet was then suspended in 10 mM HEPES, pH 7.4, 1 mM EDTA, 250 mM Sucrose (Buffer B), and 1× Complete EDTA-free protease inhibitor cocktail and homogenized using a potter. Membranes were flash frozen in liquid nitrogen and stored at −80° C. [33P]sphingosine 1-phosphate (3000 Ci/mmol; American Radiolabeled Chemicals, Inc.) was added to test compounds in DMSO. […] Binding was performed for 60 min at room temperature on a shaker and bound radioactivity was measured on a PerkinElmer 1450 MicroBeta counter. Specific binding was calculated by subtracting remaining radioactivity in the presence of 1000-fold excess of unlabeled S1P. Binding data were analyzed using the GraphPad Prism program.
The assay was initiated with the addition of 20 μl of 1.5 nM [35S]-GTPγS (1100 Ci/mmol; GE Healthcare) in assay buffer. After 60 min incubation at 30° C. on a shaker, plates were centrifuged for 10 min at 2000 RPM. Supernatant was discarded and membrane bound radioactivity was measured on a PerkinElmer 1450 MicroBeta counter. Triplicate samples were averaged and expressed as % response relative to SIP activation in absence of compound (n=2).

Sequence of S1P1 (P21453 whole entry, species assumed): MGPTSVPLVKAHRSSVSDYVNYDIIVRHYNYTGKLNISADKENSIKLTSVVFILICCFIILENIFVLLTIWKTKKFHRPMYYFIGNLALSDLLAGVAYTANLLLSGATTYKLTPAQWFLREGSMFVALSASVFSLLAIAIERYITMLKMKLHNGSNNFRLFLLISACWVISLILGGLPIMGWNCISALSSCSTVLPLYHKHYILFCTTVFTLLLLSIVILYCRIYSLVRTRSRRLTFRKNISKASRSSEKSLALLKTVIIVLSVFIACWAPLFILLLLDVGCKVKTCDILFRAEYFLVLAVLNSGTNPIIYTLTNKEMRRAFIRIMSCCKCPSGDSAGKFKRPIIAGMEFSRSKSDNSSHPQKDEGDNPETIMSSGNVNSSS

Row | pEC50 | SMILES
1 | 5.77 | Cc1cc(O)ccc1NC(=O)c1cc(NC2CCCCC2C)ncn1 (centres unmarked) [Example 1-24]
2 | 6.57 | CCCN(CC1CC1)c1cc(C(=O)Nc2ccc(CC3COC(=O)N3)cc2)ncn1 (centres unmarked) [Example 1-150]
3 | 6.97 | O=C(Nc1ccncc1)c1cc(N(CC2CC2)C2CCCCC2)ncn1 [Example 1-49]
4 | 7.22 | O=C(Nc1ccc(S(=O)(=O)NCC(O)CO)cc1)c1cc(N(CC2CC2)C2CCCCC2)ncn1 (centres unmarked) [Example 1-51]
5 | 6.54 | CCC(NCc1ccc(NC(=O)c2cc(N(CC3CC3)C3CCCCC3)ncn2)cc1)C(=O)O (centres unmarked) [Example 1-80]
6 | 5.55 | CCCN(CC1CC1)c1cc(C(=O)Nc2ccc3c(cnn3CC(=O)N(C)C)c2)ncn1 [Example 1-115]
7 | 6.30 | CCCN(CCC)c1cc(C(=O)Nc2ccc(CN)cc2)ncn1 [Example 1-72]
8 | 5.83 | COCCN(CC1CC1)c1cc(C(=O)Nc2ccc(CN)cc2)ncn1 [Example 1-89]
9 | 6.41 | CCCN(CC1CC1)c1cc(C(=O)Nc2ccc(CN(C)CCO)cc2C)ncn1 [Example 1-96]
10 | 6.65 | O=C(O)CCS(=O)(=O)Cc1ccc(NC(=O)c2cc(N(CC3CC3)C3CCCCC3)ncn2)cc1 [Example 1-133]
11 | 6.69 | CCCN(CC1CC1)c1cc(C(=O)Nc2ccc(S(=O)(=O)NCCOC)cc2C)ncn1 [Example 1-106]
12 | 6.63 | CCCN(CC1CC1)c1cc(C(=O)Nc2ccc3c(c2)CNCC3)ncn1 [Example 1-92]
13 | 6.18 | Cc1cc(O)ccc1NC(=O)c1cc(N(C)C2CCCCC2)ncn1 [Example 1-21]
14 | 6.01 | Cc1cc(O)ccc1NC(=O)c1cc(NC2CCCCCC2)ncn1 [Example 1-23]
15 | 7.10 | CCCN(CC1CC1)c1cc(C(=O)Nc2cccc(-n3cncn3)c2)ncn1 [Example 1-143]
16 | 5.98 | CCCN(CC1CC1)c1cc(C(=O)Nc2cccc(Cn3cccn3)c2)ncn1 [Example 1-148]
17 | 5.67 | CCC(NCc1ccc(NC(=O)c2cc(N(CC3CC3)C3CCCCC3)ncn2)cc1)C(=O)OC (centres unmarked) [Example 1-74]
18 | 7.41 | NCc1ccc(NC(=O)c2cc(N(CC3CC3)C3CCCCC3)ncn2)cc1 [Example 1-48]
19 | 6.09 | CCCN(CC1CC1)c1cc(C(=O)Nc2ccc(CNCCOC)cc2C)ncn1 [Example 1-95]
20 | 7.26 | CCCN(CC1CC1)c1cc(C(=O)Nc2ccc(Cn3cncn3)cc2)ncn1 [Example 1-145]
21 | 5.69 | Cn1cnnc1-c1ccc(NC(=O)c2cc(N(CC3CC3)C3CCCCC3)ncn2)cc1 [Example 1-136]
22 | 6.35 | CCCN(CC1CC1)c1cc(C(=O)Nc2ccc(CN3CCC(C(=O)O)CC3)cc2C)ncn1 [Example 1-138]
23 | 5.83 | CCCN(CC1CC1)c1cc(C(=O)Nc2ccc(CN3CCOCC3)cc2C)ncn1 [Example 1-93]
24 | 6.25 | CCOCN(CCOC)c1cc(C(=O)Nc2ccc(S(N)(=O)=O)cc2C)ncn1 [Example 1-59]
25 | 5.80 | O=C(Nc1ccc(O)c(F)c1)c1cc(NC2CCCCC2)ncn1 [Example 1-14]

Row | pEC50 | SMILES
26 | 7.00 | CCCN(CC1CC1)c1cc(C(=O)Nc2ccc(CN)cc2)ncn1 [Example 1-88]
27 | 6.29 | CCCN(CC1CC1)c1cc(C(=O)Nc2ccc(CNC(C)C(=O)O)cc2C)ncn1 (centres unmarked) [Example 1-104]
28 | 5.97 | CCCN(CC1CC1)c1cc(C(=O)Nc2ccc3c(cnn3CC(N)=O)c2)ncn1 [Example 1-117]
29 | 6.17 | CN(c1cc(C(=O)Nc2ccc(S(N)(=O)=O)cc2)ncn1)C1CCCCC1 [Example 1-30]
30 | 5.64 | CCCN(CC1CC1)c1cc(C(=O)Nc2ccc(CN3CCCC(CO)C3)cc2C)ncn1 (centres unmarked) [Example 1-141]
31 | 5.56 | CCCN(CC1CC1)c1cc(C(=O)Nc2ccc3[nH]cnc3c2)ncn1 [Example 1-125]
32 | 6.14 | CC(C)(C)OC(=O)CNCc1ccc(NC(=O)c2cc(N(CC3CC3)C3CCCCC3)ncn2)cc1 [Example 1-73]
33 | 7.14 | NC(=O)c1ccc(NC(=O)c2cc(N(CC3CC3)C3CCCCC3)ncn2)cc1 [Example 1-50]
34 | 5.77 | CCOC(=O)CCCS(=O)(=O)c1ccc(NC(=O)c2cc(N(CC3CC3)C3CCCCC3)ncn2)cc1 [Example 1-131]
35 | 7.42 | CCCN(CC1CC1)c1cc(C(=O)Nc2cccc(-n3ccnc3)c2)ncn1 [Example 1-147]
36 | 6.84 | CCCN(CC1CC1)c1cc(C(=O)Nc2ccc3c(c2)CCNC3)ncn1 [Example 1-91]
37 | 6.25 | CCCN(CC1CC1)c1cc(C(=O)Nc2ccc(CNC)cc2C)ncn1 [Example 1-111]
38 | 7.17 | CCCN(c1cc(C(=O)Nc2ccc3[nH]ncc3c2)ncn1)C(C)C [Example 1-67]
39 | 5.57 | CN(CC(=O)OC(C)(C)C)Cc1ccc(NC(=O)c2cc(N(CC3CC3)C3CCCCC3)ncn2)cc1 [Example 1-75]
40 | 6.71 | CS(=O)(=O)c1ccc(NC(=O)c2cc(N(CC3CC3)C3CCCCC3)ncn2)cc1 [Example 1-112]
41 | 5.30 | CCCN(CC1CC1)c1cc(C(=O)Nc2ccc(CS(=O)(=O)CCC(=O)OCC)cc2)ncn1 [Example 1-119]
42 | 6.48 | O=C(Nc1ccc(CN2CCNCC2)cc1)c1cc(N(CC2CC2)C2CCCCC2)ncn1 [Example 1-78]
43 | 5.70 | CCNS(=O)(=O)c1ccc(NC(=O)c2cc(N(C)C3CCCCC3)ncn2)cc1 [Example 1-31]
44 | 6.09 | CCCN(CC1CC1)c1cc(C(=O)Nc2ccc(CN(C)CC(=O)O)cc2C)ncn1 [Example 1-128]
45 | 6.22 | CCCN(CC1CC1)c1cc(C(=O)Nc2ccc3nn(CC(=O)OCC)cc3c2)ncn1 [Example 1-120]
46 | 6.33 | CCCN(CC1CC1)c1cc(C(=O)Nc2ccc(CN3CCC(O)C3)cc2C)ncn1 (centres unmarked) [Example 1-142]
47 | 5.61 | CCCN(CC1CC1)c1cc(C(=O)Nc2ccc(CN3CCC[C@@H]3COC)cc2C)ncn1 [Example 1-139]
48 | 5.81 | CCCN(CC1CC1)c1cc(C(=O)Nc2cccc(-n3ccnc3C)c2)ncn1 [Example 1-144]
49 | 6.07 | CCCN(CC1CC1)c1cc(C(=O)Nc2ccc3[nH]nc(CCC(=O)OC)c3c2)ncn1 [Example 1-123]
50 | 5.99 | CCCN(CC1CC1)c1cc(C(=O)Nc2ccc3nn(CC(=O)O)cc3c2)ncn1 [Example 1-121]

Row | pEC50 | SMILES
51 | 6.67 | COCCN(c1cc(C(=O)Nc2ccc3[nH]ncc3c2)ncn1)C(C)C [Example 1-87]
52 | 6.55 | CCCN(CC1CC1)c1cc(C(=O)Nc2ccc(-n3cncn3)cc2)ncn1 [Example 1-146]
53 | 5.77 | CCCN(CC1CC1)c1cc(C(=O)Nc2ccc3[nH]nc(CCC(=O)O)c3c2)ncn1 [Example 1-129]
54 | 6.27 | CCOC(=O)CCS(=O)(=O)Cc1ccc(NC(=O)c2cc(N(CC3CC3)C3CCCCC3)ncn2)cc1 [Example 1-130]
55 | 5.64 | COCCNS(=O)(=O)c1ccc(NC(=O)c2cc(N(C)C3CCCCC3)ncn2)cc1 [Example 1-42]
56 | 5.20 | CCCN(CC1CC1)c1cc(C(=O)Nc2ccc3nn(CC(N)=O)cc3c2)ncn1 [Example 1-118]
57 | 6.15 | CCCN(CC1CC1)c1cc(C(=O)Nc2ccc(CN3CCCC3=O)cc2C)ncn1 [Example 1-98]
58 | 6.21 | Cc1cc(O)ccc1NC(=O)c1cc(N(C)C2CCC(C)CC2)ncn1 (centres unmarked) [Example 1-32]
59 | 5.95 | CCCN(CC1CC1)c1cc(C(=O)Nc2cccc(Cn3cncn3)c2)ncn1 [Example 1-152]
60 | 6.62 | CCCN(CC1CC1)c1cc(C(=O)Nc2ccc(S(=O)(=O)NCCCC(=O)O)cc2C)ncn1 [Example 1-108]
61 | 6.58 | CCCN(CC1CC1)c1cc(C(=O)Nc2ccc(CN(C)C)cc2C)ncn1 [Example 1-94]
62 | 5.63 | CCCN(CC1CC1)c1cc(C(=O)Nc2ccc(S(C)(=O)=O)cc2)ncn1 [Example 1-110]
63 | 6.46 | O=C(Nc1ccc(Cn2cncn2)cc1)c1cc(N(CC2CC2)C2CCCCC2)ncn1 [Example 1-137]
64 | 6.32 | CCCN(CC1CC1)c1cc(C(=O)Nc2cccc(Cn3ccnc3)c2)ncn1 [Example 1-153]
65 | 6.23 | CCCN(CC1CC1)c1cc(C(=O)Nc2cccc3[nH]ncc23)ncn1 [Example 1-134]
66 | 5.82 | CCCN(CC1CC1)c1cc(C(=O)Nc2ccc(S(=O)(=O)CCCC(=O)O)cc2)ncn1 [Example 1-124]
67 | 5.94 | COC(=O)C(C)(C)NCc1ccc(NC(=O)c2cc(N(CC3CC3)C3CCCCC3)ncn2)cc1 [Example 1-83]
68 | 5.49 | CCCN(CC1CC1)c1cc(C(=O)Nc2ccc3c(cnn3CC(=O)O)c2)ncn1 [Example 1-116]
69 | 5.51 | CCCN(CC1CC1)c1cc(C(=O)Nc2ccc(CS(=O)(=O)CCC(=O)O)cc2)ncn1 [Example 1-135]
70 | 5.91 | CCCN(CC1CC1)c1cc(C(=O)Nc2ccc(S(=O)(=O)N(C)CC(=O)O)cc2C)ncn1 [Example 1-102]
71 | 4.88 | Cc1cc(S(N)(=O)=O)ccc1NC(=O)c1cc(OC2CCCCC2)ncn1 [Example 1-65]
72 | 5.36 | O=C(Nc1ccc(C(=O)O)c(F)c1)c1cc(N(CC2CC2)C2CCCCC2)ncn1 [Example 1-122]
73 | 6.22 | CCCN(CC1CC1)c1cc(C(=O)Nc2ccc(N3CCOCC3)c(F)c2)ncn1 [Example 1-151]
74 | 6.09 | CCCN(CC1CC1)c1cc(C(=O)Nc2ccc(CN3CCC3)cc2C)ncn1 [Example 1-154]
